According to patent US12543736B2, “Herbicidal compositions comprising mesotrione” (BASF SE, priority 2024, dated 2026):

Legend:
Type in all cases: in vivo
Amaranthus retroflexus = assay: Example 3 post-emergence field trial, AMARE; conditions: height 10-12 cm; for % herbicidal activity A-1 / % herbicidal activity B: 42 DAT
Description: (§1) In the examples below, using the method of S. R. Colby (1967) “Calculating synergistic and antagonistic responses of herbicide combinations”, Weeds 15, p. 22ff., the value E, which is expected if the activity of the individual active compounds is only additive, was calculated: [formula] • where • X=percent activity using active herbicide A at an application rate a; • Y=percent activity using active herbicide B (e.g. mesotrione) at an application rate b; • E=expected activity (in %) by A+B at application rates a+b. If the value found experimentally is higher than the value E calculated according to Colby, a synergistic effect is present. Evaluation was carried out using a scale from 0 to 100. 100 means no emergence of the plants, or complete destruction of at least the above-ground parts, and 0 means no damage or normal course of growth. A good herbicidal activity is given at values of at least 70, and very good herbicidal activity is given at values of at least 85. Post-Emergence Application of Herbicide A-1 (A-1) and Mesotrione (B) in Field Trials Herbicide A-1 (342 g/l) and mesotrione (100 g/l) were, together with addition of 0.5 v/v % MSO (methylated sed oil) as adjuvant, formulated in water as distribution medium (water volume 200 l/ha) and sprayed with commercial flat fan nozzles.

Zea mays = assay: Example 3 post-emergence field trial, ZEAMX
Description: as §1

Digitaria sanguinalis [1] = assay: Example 3 post-emergence field trial, DIGSA; conditions: height 10-15 cm; for % herbicidal activity A-1 / % herbicidal activity B: 42 DAT
Description: as §1

Erigeron canadensis = assay: Example 2 post-emergence greenhouse trial, ERICA
Description: (§2) In the examples below, using the method of S. R. Colby (1967) “Calculating synergistic and antagonistic responses of herbicide combinations”, Weeds 15, p. 22ff., the value E, which is expected if the activity of the individual active compounds is only additive, was calculated: [formula] • where • X=percent activity using active herbicide A at an application rate a; • Y=percent activity using active herbicide B (e.g. mesotrione) at an application rate b; • E=expected activity (in %) by A+B at application rates a+b. If the value found experimentally is higher than the value E calculated according to Colby, a synergistic effect is present. The culture containers used were plastic pots containing loamy sand with approximately 3.0% of humus as substrate. The seeds of the test plants were sown separately for each species. For the post-emergence treatment, the test plants were grown to a plant height of from 3 to 15 cm, depending on the plant habit, and only then treated with the active compounds which had been suspended or emulsified in water. To this end, the test plants were either sown directly, and grown in the same containers, or they were first grown separately as seedlings and transplanted into the test containers a few days prior to treatment. Depending on the species, the plants were kept at 10-25° C. and 20-35° C., respectively. The test period extended over 2 to 4 weeks. During this time, the plants were tended and their response to the individual treatments was evaluated. Evaluation was carried out using a scale from 0 to 100. 100 means no emergence of the plants, or complete destruction of at least the above-ground parts, and 0 means no damage or normal course of growth. A good herbicidal activity is given at values of at least 70, and very good herbicidal activity is given at values of at least 85. Post-Emergence Application of Herbicide A-1 (A-1) and Mesotrione (B) in Greenhouse Trials Herbicide A-1 (342 g/l) and mesotrione (480 g/l) were, together with addition of 0.5 v/v % MSO (methylated sed oil) as adjuvant, formulated in water as distribution medium (water volume 200 l/ha) and sprayed with commercial flat fan nozzles.

Digitaria sanguinalis [2] = assay: Example 2 post-emergence greenhouse trial, DIGSA; conditions: growth stage 12, 7 DAT
Description: as §2

Hordeum vulgare = assay: Example 3 post-emergence field trial, HORVX; conditions: height 20-25 cm
Description: as §1

[3] = 7 DAT, g ai/ha: A-1 12.5, B 105
[4] = 7 DAT, g ai/ha: A-1 12.5, B 210
[5] = 21 DAT, g ai/ha: A-1 12.5, B 210
[6] = height 27-33 cm, 7 DAT, g ai/ha: A-1 12.5, B 105
[7] = height 27-33 cm, 7 DAT, g ai/ha: A-1 12.5, B 210
[8] = height 27-33 cm, 7 DAT, g ai/ha: A-1 18, B 105
[9] = height 27-33 cm, 7 DAT, g ai/ha: A-1 18, B 210
[10] = height 27-33 cm, 21 DAT, g ai/ha: A-1 12.5, B 105
[11] = height 27-33 cm, 21 DAT, g ai/ha: A-1 12.5, B 210
[12] = height 27-33 cm, 21 DAT, g ai/ha: A-1 18, B 105
[13] = height 27-33 cm, 21 DAT, g ai/ha: A-1 18, B 210
[14] = height 27-33 cm, 28 DAT, g ai/ha: A-1 12.5, B 105
[15] = height 27-33 cm, 28 DAT, g ai/ha: A-1 12.5, B 210
[16] = height 27-33 cm, 28 DAT, g ai/ha: A-1 18, B 105
[17] = height 27-33 cm, 28 DAT, g ai/ha: A-1 18, B 210
[18] = height 40-60 cm, 7 DAT, g ai/ha: A-1 12.5, B 105
[19] = height 40-60 cm, 7 DAT, g ai/ha: A-1 12.5, B 210
[20] = height 40-60 cm, 7 DAT, g ai/ha: A-1 18, B 105
[21] = height 40-60 cm, 7 DAT, g ai/ha: A-1 18, B 210
[22] = 21 DAT, g ai/ha: A-1 12.5, B 105
[23] = growth stage 19, 7 DAT, g ai/ha: A-1 1, B 50
[24] = growth stage 19, 20 DAT, g ai/ha: A-1 0.5, B 50
[25] = growth stage 19, 20 DAT, g ai/ha: A-1 2, B 50
[26] = 28 DAT, g ai/ha: A-1 12.5, B 105
[27] = 28 DAT, g ai/ha: A-1 12.5, B 210

CCOC(=O)COc1ccccc1Oc1nc(-n2c(=O)cc(C(F)(F)F)n(C)c2=O)c(F)cc1Cl [A-1, ethyl 2-[2-[[3-chloro-5-fluoro-6-[3-methyl-2,6-dioxo-4-(trifluoromethyl)pyrimidin-1-yl]-2-pyridyl]oxy]phenoxy]acetate]
% herbicidal activity A-1 (Amaranthus retroflexus; A-1 12.5 g ai/ha): 80%
% herbicidal activity A-1 (Amaranthus retroflexus; A-1 18 g ai/ha): 85%
% herbicidal activity (Amaranthus retroflexus; [3]): 85%
% herbicidal activity (Amaranthus retroflexus; [4]): 80%
% herbicidal activity (Amaranthus retroflexus; 7 DAT, g ai/ha: A-1 18, B 105): 93%
% herbicidal activity (Amaranthus retroflexus; 7 DAT, g ai/ha: A-1 18, B 210): 90%
% herbicidal activity (Amaranthus retroflexus; [5]): 80%
% herbicidal activity (Amaranthus retroflexus; 21 DAT, g ai/ha: A-1 18, B 105): 80%
% herbicidal activity (Amaranthus retroflexus; 21 DAT, g ai/ha: A-1 18, B 210): 75%
% herbicidal activity (Zea mays; [6]): 30%
% herbicidal activity (Zea mays; [7]): 45%
% herbicidal activity (Zea mays; [8]): 40%
% herbicidal activity (Zea mays; [9]): 55%
% herbicidal activity (Zea mays; [10]): 80%
% herbicidal activity (Zea mays; [11]): 85%
% herbicidal activity (Zea mays; [12]): 90%
% herbicidal activity (Zea mays; [13]): 80%
% herbicidal activity (Zea mays; [14]): 80%
% herbicidal activity (Zea mays; [15]): 80%
% herbicidal activity (Zea mays; [16]): 88%
% herbicidal activity (Zea mays; [17]): 85%
% herbicidal activity (Zea mays; [18]): 85%
% herbicidal activity (Zea mays; [19]): 85%
% herbicidal activity (Zea mays; [20]): 85%
% herbicidal activity (Zea mays; [21]): 85%
% herbicidal activity A-1 (Digitaria sanguinalis [1]; A-1 12.5 g ai/ha): 65%
% herbicidal activity A-1 (Digitaria sanguinalis [1]; A-1 18 g ai/ha): 70%
% herbicidal activity (Digitaria sanguinalis [1]; [3]): 80%
% herbicidal activity (Digitaria sanguinalis [1]; 7 DAT, g ai/ha: A-1 18, B 105): 80%
% herbicidal activity (Digitaria sanguinalis [1]; [22]): 70%
% herbicidal activity (Digitaria sanguinalis [1]; 21 DAT, g ai/ha: A-1 18, B 105): 80%
% herbicidal activity (Erigeron canadensis; [23]): 80%
% herbicidal activity (Erigeron canadensis; [24]): 70%
% herbicidal activity (Erigeron canadensis; [25]): 85%
% herbicidal activity (Digitaria sanguinalis [2]; g ai/ha: A-1 0.25, B 50): 30%
% herbicidal activity (Digitaria sanguinalis [2]; g ai/ha: A-1 0.25, B 100): 30%
% herbicidal activity (Digitaria sanguinalis [2]; g ai/ha: A-1 0.5, B 50): 80%
% herbicidal activity A-1 (Hordeum vulgare; 42 DAT, A-1 12.5 g ai/ha): 95%
% herbicidal activity (Hordeum vulgare; [3]): 70%
% herbicidal activity (Hordeum vulgare; [4]): 60%
% herbicidal activity (Hordeum vulgare; 7 DAT, g ai/ha: A-1 18, B 105): 80%
% herbicidal activity (Hordeum vulgare; 7 DAT, g ai/ha: A-1 18, B 210): 70%
% herbicidal activity (Hordeum vulgare; [22]): 70%
% herbicidal activity (Hordeum vulgare; [5]): 60%
% herbicidal activity (Hordeum vulgare; 21 DAT, g ai/ha: A-1 18, B 105): 85%
% herbicidal activity (Hordeum vulgare; 21 DAT, g ai/ha: A-1 18, B 210): 70%
% herbicidal activity (Hordeum vulgare; [26]): 70%
% herbicidal activity (Hordeum vulgare; [27]): 70%
% herbicidal activity (Hordeum vulgare; 28 DAT, g ai/ha: A-1 18, B 105): 90%
% herbicidal activity (Hordeum vulgare; 28 DAT, g ai/ha: A-1 18, B 210): 70%

CS(=O)(=O)c1ccc(C(=O)C2C(=O)CCCC2=O)c([N+](=O)[O-])c1 [B, mesotrione]
% herbicidal activity B (Amaranthus retroflexus; B 210 g ai/ha (row with A-1 12.5)): 65%
% herbicidal activity B (Amaranthus retroflexus; B 210 g ai/ha (row with A-1 18)): 80%
% herbicidal activity (Amaranthus retroflexus; [3]): 65%
% herbicidal activity (Amaranthus retroflexus; [4]): 65%
% herbicidal activity (Amaranthus retroflexus; 7 DAT, g ai/ha: A-1 18, B 105): 65%
% herbicidal activity (Amaranthus retroflexus; 7 DAT, g ai/ha: A-1 18, B 210): 65%
% herbicidal activity (Amaranthus retroflexus; [5]): 65%
% herbicidal activity (Amaranthus retroflexus; 21 DAT, g ai/ha: A-1 18, B 105): 65%
% herbicidal activity (Amaranthus retroflexus; 21 DAT, g ai/ha: A-1 18, B 210): 65%
% herbicidal activity (Zea mays; [6]): 0%
% herbicidal activity (Zea mays; [7]): 0%
% herbicidal activity (Zea mays; [8]): 0%
% herbicidal activity (Zea mays; [9]): 0%
% herbicidal activity (Zea mays; [10]): 0%
% herbicidal activity (Zea mays; [11]): 0%
% herbicidal activity (Zea mays; [12]): 0%
% herbicidal activity (Zea mays; [13]): 0%
% herbicidal activity (Zea mays; [14]): 0%
% herbicidal activity (Zea mays; [15]): 0%
% herbicidal activity (Zea mays; [16]): 0%
% herbicidal activity (Zea mays; [17]): 0%
% herbicidal activity (Zea mays; [18]): 5%
% herbicidal activity (Zea mays; [19]): 5%
% herbicidal activity (Zea mays; [20]): 5%
% herbicidal activity (Zea mays; [21]): 5%
% herbicidal activity B (Digitaria sanguinalis [1]; B 105 g ai/ha): 55%
% herbicidal activity B (Digitaria sanguinalis [1]; B 210 g ai/ha): 70%
% herbicidal activity (Digitaria sanguinalis [1]; [3]): 50%
% herbicidal activity (Digitaria sanguinalis [1]; 7 DAT, g ai/ha: A-1 18, B 105): 50%
% herbicidal activity (Digitaria sanguinalis [1]; [22]): 65%
% herbicidal activity (Digitaria sanguinalis [1]; 21 DAT, g ai/ha: A-1 18, B 105): 65%
% herbicidal activity (Erigeron canadensis; [23]): 25%
% herbicidal activity (Erigeron canadensis; [24]): 80%
% herbicidal activity (Erigeron canadensis; [25]): 80%
% herbicidal activity (Digitaria sanguinalis [2]; g ai/ha: A-1 0.25, B 50): 70%
% herbicidal activity (Digitaria sanguinalis [2]; g ai/ha: A-1 0.25, B 100): 80%
% herbicidal activity (Digitaria sanguinalis [2]; g ai/ha: A-1 0.5, B 50): 70%
% herbicidal activity B (Hordeum vulgare; 42 DAT, B 210 g ai/ha): 0%
% herbicidal activity (Hordeum vulgare; [3]): 20%
% herbicidal activity (Hordeum vulgare; [4]): 0%
% herbicidal activity (Hordeum vulgare; 7 DAT, g ai/ha: A-1 18, B 105): 20%
% herbicidal activity (Hordeum vulgare; 7 DAT, g ai/ha: A-1 18, B 210): 0%
% herbicidal activity (Hordeum vulgare; [22]): 20%
% herbicidal activity (Hordeum vulgare; [5]): 0%
% herbicidal activity (Hordeum vulgare; 21 DAT, g ai/ha: A-1 18, B 105): 20%
% herbicidal activity (Hordeum vulgare; 21 DAT, g ai/ha: A-1 18, B 210): 0%
% herbicidal activity (Hordeum vulgare; [26]): 20%
% herbicidal activity (Hordeum vulgare; [27]): 20%
% herbicidal activity (Hordeum vulgare; 28 DAT, g ai/ha: A-1 18, B 105): 20%
% herbicidal activity (Hordeum vulgare; 28 DAT, g ai/ha: A-1 18, B 210): 20%
